The subject of assay [1] is human neuroblastoma strains SH-SY-5Y and SK-N-BE Bep 75. Description: Measurement of apoptosis (NGF-induced, cell death detection ELISA). The following applies: SH-SY5Y, NGF 10 ng/ml, 48 h (SH-SY-5Y) or 24 h (SK-N-BE Bep 75), cell strain not given, read-out: IC50 of NGF-induced apoptosis inhibition. The class given is cell-based. The protocol: The SH-SY-5Y strain (human neuroblastoma) is cultured conventionally in a DMEM culture medium (Dulbecco's Modified Eagle's Medium) (Gibco BRL, France) containing FCS (5%) (foetal calf serum) (Boehringer Mannheim, Germany), sodium pyruvate (1 mM) and glutamine (4 mM) in collagen-coated culture flasks (Becton Dickinson, France).
(§1) The parent strain SK-N-BE (human neuroblastoma) and the clone Bep 75, stably expressing the whole form of the human p75^NTR receptor (SK-N-BE Bep 75), are cultured conventionally in an RPMI culture medium containing FCS (5%), sodium pyruvate (1 mM) and glutamine (4 mM). For the SK-N-BE Bep 75 cells, hygromycin (200 μl/20 ml of medium) is added as selection agent.
The cells (human neuroblastoma strains SH-SY-5Y and SK-N-BE Bep 75) are placed in Petri dishes 35 mm in diameter (Biocoat collagen I (10^5 cells/well)) in an appropriate culture medium containing 5% FCS for 24 h. The culture medium is then removed, the cells are rinsed with PBS (Dulbecco's Phosphate buffered saline), and then either fresh medium containing 5% FCS, or medium containing NGF (at the concentration of 10 ng/ml) or beta-amyloid peptide (Aβ1-40) (at the concentration of 10 μM) is added, in the presence or absence of the compounds according to the invention. The degrees of apoptosis are measured 48 hours after the treatments in the case of the SH-SY-5Y strain, and 24 hours after the treatments in the case of the SK-N-BE Bep 75 strain, by quantifying the cytoplasmic histones associated with DNA fragments (cell death detection ELISA, Boehringer Mannheim, Germany). The degrees of apoptosis are expressed as quantity of oligonucleosomes/10^5 cells. Each value corresponds to the mean of 9 experimental points distributed over 3 independent experiments.
For orientation: In an ELISA, binding on a coated surface is turned into a signal by an enzyme label.

Assay [2] addresses T1, p75^NTR receptor (Homo sapiens, UniProt P08138).
T1 sequence (P08138 29-427): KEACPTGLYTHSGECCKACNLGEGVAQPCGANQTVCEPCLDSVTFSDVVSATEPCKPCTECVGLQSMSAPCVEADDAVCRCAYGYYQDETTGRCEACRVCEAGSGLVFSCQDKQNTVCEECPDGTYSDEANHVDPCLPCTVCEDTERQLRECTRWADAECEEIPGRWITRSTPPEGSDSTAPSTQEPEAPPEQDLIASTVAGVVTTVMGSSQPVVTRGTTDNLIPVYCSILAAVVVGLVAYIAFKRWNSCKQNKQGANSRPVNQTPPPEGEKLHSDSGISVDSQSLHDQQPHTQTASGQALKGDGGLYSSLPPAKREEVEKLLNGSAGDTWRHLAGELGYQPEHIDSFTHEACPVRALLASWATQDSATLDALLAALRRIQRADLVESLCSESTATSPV
Description: Binding of 125I NGF to the p75NTR receptor on SK-N-BE Bep 75 cell suspension. Also on record: the whole form of the human p75^NTR receptor; expressed in transfected cells; host or cells: SK-N-BE (human neuroblastoma), clone Bep 75, hygromycin selection. Here is the method: as §1
Study of the binding of ^125I NGF to the p75^NTR receptor The study of NGF binding (nerve growth factor radiolabelled with iodine-125, Amersham—2000 Ci/mmol) is carried out on a cell suspension of the SK-N-BE Bep 75 strain in accordance with the method described by Weskamp (Neuron, 1991, 6, 649-663). The non-specific binding is determined by measuring the total binding after preincubation for one hour with cells at 37° C. in the presence of non-radiolabelled NGF (1 μM). The specific binding is calculated by the difference between the total binding measurement and the non-specific binding measurement. The competition experiments are carried out using an iodinated NGF (^125I NGF) concentration of 0.3 nM.

In assay [3] the target is T1, p75^NTR receptor. Kind of assay: p75NTR receptor dimerisation independently of its ligand (soluble p75NTR-alkaline phosphatase binding to SK-N-BE Bep 75 cells). Also on record: the whole form of the human p75^NTR receptor; expressed in transfected cells; host or cells: SK-N-BE Bep 75 cells (membrane receptor); HEK293 cells transfected for 48 h (secreted soluble fusion). Here is the method:
as §1
Study of p75^NTR receptor dimerisation independently of its ligand The study of p75^NTR receptor dimerisation is carried out on a cell suspension of the SK-N-BE Bep 75 strain. The cells (2.5×10^4 cells/well) are placed in wells (96-well plate) for 24 h, and then preincubated for 1 h at 37° C. in the presence or absence of the compounds according to the invention. Supernatant, derived from culturing HEK293 human cells of renal origin expressing, after transfection for 48 h, and secreting a soluble form of the p75^NTR receptor (extracellular part of the receptor) coupled to an alkaline phosphatase, is then added at the final concentration of 10 nM. The quantification of the specific binding of the soluble p75^NTR receptor to the receptor present on SK-N-BE Bep 75 cells is determined by measuring the enzymatic alkaline phosphatase activity after incubation of the cells for 1 hour at 37° C. in the presence of the supernatant. After filtration and transfer of the filters into 24-well plates, the alkaline phosphatase activity is determined by adding CDP-Star chemiluminescent substrate (ready-to-use, Roche).

The record followed here is patent publication US8519143B2, “Derivatives of (bridged piperazinyl)-1-alkanone and use thereof as p75 inhibitors” (Sanofi, priority 2008, dated 2013).

Structures are written as SMILES.

By IC50 is commonly meant the concentration at which inhibition is half-maximal.

Regarding `O=C(CN1CC2CCC(C1)N2c1ccc(C(F)(F)F)cn1)N1CC=C(c2cccc(C(F)(F)F)c2)CC1` [Compound No. 1, 1-[4-(3-trifluoromethylphenyl)-3,6-dihydro-2H-pyridin-1-yl]-2-[8-(5-trifluoromethylpyridin-2-yl)-3,8-diazabicyclo[3.2.1]oct-3-yl]ethanone], the IC50 stood at 1.33 nM in assay [1], 1.35 nM in assay [2] and 23.4 nM in assay [3].
Compound `O=C(CN1CC2CCC(C1)N2c1ncccn1)N1CC=C(c2ccc(Cl)cc2)CC1` [Compound No. 2, 1-[4-(4-chlorophenyl)-3,6,-dihydro-2H-pyridin-1-yl]-2-(8-pyrimidin-2-yl-3,8-diazabicyclo[3.2.1]oct-3-yl)ethanone] returned an IC50 in assay [2] of 0.18 nM.
As for `O=C(CN1C2CCC1CN(c1cnccn1)C2)N1CC=C(c2cccc(C(F)(F)F)c2)CC1` [Compound No. 3, 2-(3-pyrazin-2-yl-3,8-diazabicyclo[3.2.1]oct-8-yl)-1-[4-(3-trifluoromethylphenyl)-3,6-dihyro-2H-pyridin-1-yl]ethanone], the figures for the IC50 in assay [1] and in assay [3] were 0.067 nM and 0.05 nM, respectively.
Compound `O=C(CN1CC2CCC(C1)N2c1ccc(C(F)(F)F)cn1)N1CC=C(c2ccc(Cl)cc2)CC1` [Compound No. 7, 1-[4-(4-chlorophenyl)-3,6-dihydro-2H-pyridin-1-yl]-2-[8-(5-trifluoromethylpyridin-2-yl)-3,8-diazabicyclo[3.2.1]oct-3-yl]ethanone] yielded an IC50 in assay [2] of 0.29 nM.
For `O=C(CN1CC2CCC(C1)N2c1ccc(C(F)(F)F)cn1)N1CC=C(c2ccc(Cl)c(C(F)(F)F)c2)CC1` [Compound No. 8, 1-[4-(4-chloro-3-trifluoromethylphenyl)-3,6-dihydro-2H-pyridin-1-yl]-2-[8-(5-trifluoromethylpyridin-2-yl)-3,8-diazabicyclo[3.2.1]oct-3-yl]ethanone], the values for the IC50 in assay [1] and in assay [3] were 2.24 nM and 0.68 nM, respectively.
As to `O=C(CN1CC2CCC(C1)N2c1ncc(F)cn1)N1CC=C(c2ccc(Cl)c(C(F)(F)F)c2)CC1` [Compound No. 11, 1-[4-(4-chloro-3-trifluoromethylphenyl)-3,6-dihydro-2H-pyridin-1-yl]-2-[8-(5-fluoropyrimidin-2-yl)-3,8-diazabicyclo[3.2.1]oct-3-yl]ethanone], the IC50 in assay [1] is 0.21 nM; in assay [2], 0.98 nM; in assay [3], 0.2 nM.
As to `O=C(CN1CC2CCC(C1)N2c1cccnc1)N1CC=C(c2ccc(Cl)c(C(F)(F)F)c2)CC1` [Compound No. 27, 1-[4-(4-chloro-3-trifluoromethylphenyl)-3,6-dihydro-2H-pyridin-1-yl]-2-(8-pyridin-3-yl-3,8-diazabicyclo[3.2.1]oct-3-yl)ethanone], the IC50 is 0.088 nM in assay [1] and 0.23 nM in assay [3].
The compound `COC(=O)c1ccc(N2C3CCC2CN(CC(=O)N2CC=C(c4ccc(Cl)c(C(F)(F)F)c4)CC2)C3)nc1` [Compound No. 28, 6-(3-{2-[4-(4-chloro-3-trifluoromethylphenyl)-3,6-dihydro-2H-pyridin-1-yl]-2-oxoethyl}-3,8-diazabicyclo[3.2.1]oct-8-yl)nicotinic acid methyl ester] registered an IC50 in assay [3] of 9.84 nM.
As for `O=C(O)c1ccc(N2C3CCC2CN(CC(=O)N2CC=C(c4ccc(Cl)c(C(F)(F)F)c4)CC2)C3)nc1` [Compound No. 29, 6-(3-{2-[4-(4-chloro-3-trifluoromethylphenyl)-3,6-dihydro-2H-pyridin-1-yl]-2-oxoethyl}-3,8-diazabicyclo[3.2.1]oct-8-yl)nicotinic acid], the IC50 was 0.22 nM in assay [1] and 0.14 nM in assay [3].
In turn, `COC(=O)c1cccc(C2=CCCN(C(=O)CN3CC4CCC(C3)N4c3ncc(F)cn3)C2)c1` [Compound No. 53, 3-(1-{2-[8-(5-fluoropyrimidin-2-yl)-3,8-diazabicyclo[3.2.1]oct-3-yl]acetyl}-1,2,5,6-tetrahydropyridin-3-yl)benzoic acid methyl ester] showed an IC50 in assay [3] of 2.08 nM.
